Measurements from patent publication US4333926A, “Steryl-β-D-glucoside pharmaceutical compositions and use” (Nippon Shinyaku Co., Ltd., priority 1979, dated 1982).
Like-named read-outs stand apart in the source and are kept apart here.

Key:
[1] = tested on: pulmonary hemorrhage under reduced pressure; test: Vascular stabilization: pulmonary hemorrhage in mice under reduced pressure (Table 6; vascular stability summary table); type: in vivo; details: for ED50: Mus musculus, iv, read-out: Vascular stability ED50; for ED50 (pulmonary hemorrhage): reduced pressure 50±0.5 mm Hg/15 sec
Protocol: For example, the following tables summarize the vascular stabilizing effect (described in detail below).
The surprising vascular stabilizing effect of these compounds can also be shown in a number of recognized models of which the following are typical.
The degree of pulmonary homorrhage in mice under reduced pressure of 50±0.5 mm Hg/15 sec was assessed by the scoring method, the ED50 of each compound being calculated from the ratio of inhibiting rate for treated animals over that for the control group according to the method of G. J. Mojovski et al., J. Pharmacol. Exp. Therap. 80, 1, 1944.

[2] = tested on: increased vascular permeability induced by hyaluronidase; test: Increased vascular permeability induced by hyaluronidase, rat; type: in vivo; details: 100 mg/kg, i.p.
Protocol: (§1) The inhibitory effect on increased vascular permeability caused by intracutaneous administration of histamine, hyaluronidase, lecithinase A and formalin is also correlated to vascular stabilization. This parameter was measured by the dye leakage method with the inhibitory effect of each test drug expressed in terms of inhibiting rate over the control according to the methods of Benditt et al., Proc. Soc. Biol. Med. 75 782 1950 and Orary et al., J. Exp. Med. 117, 951, 1963.

[3] = tested on: local hemorrhage induced by snake venom (Naja Naja cobra); test: Local hemorrhage induced by snake venom; type: in vivo, rats
Protocol: The inhibitory effect of SG and SGP on local hemorrhage induced by abdominal intracutaneous administration of snake venom (Naja Naja cobra) in rats was determined in terms of inhibiting rate against untreated control rats.

[4] = tested on: bleeding from punctured ear vein; test: Inhibitory effect on bleeding from ear vein (Duke); type: in vivo, rabbits; details: 10 mg/kg i.v., 3 hours after administration
From the text: The hemostatic effect can also be observed by measuring the inhibitory effect on bleeding from ear vein in rabbits.

[5] = tested on: increased vascular permeability induced by hyaluronidase; test: Increased vascular permeability induced by hyaluronidase, rabbit; type: in vivo; details: 100 mg/kg, i.p.
Protocol: as §1

[6] = tested on: gastric mucosal hemorrhaging induced by electroshock; test: Gastric mucosal hemorrhage induced by electroshock (Danno et al.); type: in vivo, rats
[7] = tested on: increased vascular permeability caused by histamine; test: Increased vascular permeability caused by histamine, rat; type: in vivo; details: 100 mg/kg, i.p.
Protocol: as §1

[8] = tested on: passive systemic anaphylaxis; test: Passive systemic anaphylaxis lethality (Munoz et al.); type: in vivo, guinea-pigs
Protocol: The preventive effect against passive systemic anaphylaxis was determined according to the method of Munoz et al., J. Immunol., 80, 77 (1958). An antigen of 80% lethal dose is intravenously administered to antiserum-sensitized guinea-pigs, and the resultant passive systemic anaphylaxis lethality is expressed as the inhibition rate as compared with the control group.

[9] = tested on: increased vascular permeability induced by formalin; test: Increased vascular permeability induced by formalin; type: in vivo, rabbits; details: 100 mg/kg, i.p.
Protocol: as §1

[10] = tested on: bleeding from amputated tail tip; test: Hemostatic effect, bleeding from amputated tail tip (Motohashi et al.); type: in vivo, mice
[11] = tested on: hemorrhages induced by vesical mucosal resection; test: Hemorrhage induced by vesical mucosal resection (Dermaut et al.); type: in vivo, dogs; details: 5 mg/kg i.v.
endotoxin shock = test: Endotoxin shock mortality (48 hours); type: in vivo
Protocol: The mortality rate during the period of 48 hours following intravenous administration of 80% lethal dose (8 mg/kg) of endotoxin is observed with the effect of each compound being expressed as the ED50 (see Tanabe et al., Pharmacometrics Vol. 7 591, 1973).

[12] = tested on: abdominal cutaneous vascular resistance; test: Abdominal cutaneous vascular resistance, petechia appearance under reduced pressure (Borbely et al.); type: in vivo, guinea-pigs; details: 100 mg/kg, s.c.; reduced pressure 250 to 260 mm Hg
From the text: The effect on abdominal cutaneous vascular resistance in guinea-pigs can also be used as a model of vascular stabilization. The time of appearance of petechia in abdominal skin of guinea-pigs under reduced pressure of 250 to 260 mm Hg is used as the index, with the petechia appearance delaying effect of each test compound in comparison with the control being determined according to the method of V. Borbely et al., Munch.

Arthus reaction = test: Arthus reaction, increased vascular permeability (Benacerral et al.); type: in vivo, guinea-pigs; details: 100 mg/kg, i.p.; 5 hours after provocation
Protocol: Increased vascular permeability five hours after provocation of reaction is measured as the leakage of hemoglobin according to the method of Benacerral et al., J. Immunol.

[13] = tested on: increased vascular permeability induced by lecithinase A; test: Increased vascular permeability induced by lecithinase A; type: in vivo, rabbits; details: 100 mg/kg, i.p.
Protocol: as §1

[14] = tested on: increased vascular permeability caused by histamine; test: Increased vascular permeability caused by histamine, rabbit; type: in vivo; details: 100 mg/kg, i.p.
Protocol: as §1

Compound: CC(C)CCC[C@@H](C)[C@H]1CC[C@H]2[C@@H]3CC=C4C[C@@H](O[C@@H]5O[C@H](CO)[C@@H](O)[C@H](O)[C@H]5O)CC[C@]4(C)[C@H]3CC[C@]12C [Cholesteryl-β-D-glucoside]
- ED50 ([1]; summary table by compound): 1.8 mg/kg

Compound: CC(C)[C@H](C)CC[C@@H](C)[C@H]1CC[C@H]2[C@@H]3CC=C4C[C@@H](O[C@@H]5O[C@H](CO)[C@@H](O)[C@H](O)[C@H]5O)CC[C@]4(C)[C@H]3CC[C@]12C [Campesteryl-β-D-glucoside]
- ED50 [1]: 2.4 mg/kg

Compound: CC[C@H](/C=C/[C@@H](C)[C@H]1CC[C@H]2[C@@H]3CC=C4C[C@@H](O[C@@H]5O[C@H](CO)[C@@H](O)[C@H](O)[C@H]5O)CC[C@]4(C)[C@H]3CC[C@]12C)C(C)C [Stigmasteryl-β-D-glucoside]
- ED50 ([1]; summary table by compound): 2.33 mg/kg

Compound: CN1C2=CC(=O)/C(=N\NC(N)=O)C=C2CC1S(=O)(=O)[O-].[Na+] (centres unmarked) [Carbazochrome sodium sulfonate]
- % Inhibition [2]: -4.5%
- inhibitory effect against hemorrhagic action of snake venom ([3]; 100 mg/kg): only slight effects
- % Inhibition (local hemorrhage) ([3]; 100 mg/kg i.p.): 9.1%
- % Reduction (time of bleeding) [4]: 20.0%
- % Inhibition [5]: 4.7%
- electroshock hemorrhage arresting effect ([6]; dose of 200 mg/kg): no noticeable effect
- ED50 (inhibiting gastric mucosal hemorrhage) ([6]; s.c., electroshock 100-200 V, 3 times/min., 24 hours): > 200.0 mg/kg
- % Inhibition [7]: 32.7%
- % Inhibition (PSA lethality) ([8]; 100 mg/kg, i.p., antigen 80% lethal dose i.v.): 20%
- effect on passive systemic anaphylaxis ([8]; dose of 100 mg/kg): only very slight effects
- % Inhibition [9]: 0.4%
- ED50 (hemostatic effect) ([10]; i.p.): 5.4 mg/kg
- ED50 (hemostatic effect) ([10]; i.v.): 3.6 mg/kg
- ED50 (hemostatic effect) ([10]; p.o.): 36.0 mg/kg
- ED50 (pulmonary hemorrhage) ([1]; i.p.): 112.0 mg/kg
- ED50 (pulmonary hemorrhage) ([1]; i.v.): 80.0 mg/kg
- ED50 (pulmonary hemorrhage) ([1]; p.o.): 400.0 mg/kg
- % Inhibition (bleeding) [11]: 39.9%
- effect on endotoxin shock (endotoxin shock; doses of less than 200 mg/kg): no niticeable effect
- ED50 (endotoxin shock) (endotoxin shock; i.p., endotoxin 80% lethal dose (8 mg/kg) i.v., 48 hours): > 200.0 mg/kg
- inhibitory effect against death from endotoxin-shock (endotoxin shock; in vivo): far inferior in effect to SG and SGP
- Prolongation Rate (test group/control group) [12]: 1.7
- % Inhibition (Arthus reaction) (Arthus reaction): 26.3%
- % Inhibition [13]: 10.8%
- % Inhibition [14]: 29.6%

Compound: CC[C@H](CC[C@@H](C)[C@H]1CC[C@H]2[C@@H]3CC=C4C[C@@H](O[C@@H]5O[C@H](CO)[C@@H](O)[C@H](O)[C@H]5O)CC[C@]4(C)[C@H]3CC[C@]12C)C(C)C [β-sitosteryl-β-D-glucoside]
- ED50 ([1]; summary table by compound): 1.48 mg/kg
